Reference: ChEMBL document CHEMBL3763070, “Development of CINPA1 analogs as novel and potent inverse agonists of constitutive androstane receptor” (Eur J Med Chem, 2016)

target: T1, Nuclear receptor subfamily 1 group I member 3 (Homo sapiens, UniProt Q14994); experiment: Inverse agonist activity at GST tagged-human CAR-LBD assessed as reduction in fluorescein-PGC1 alpha coactivator recruitment after 1 hr by TR-FRET assay
T1 sequence (Q14994 whole entry): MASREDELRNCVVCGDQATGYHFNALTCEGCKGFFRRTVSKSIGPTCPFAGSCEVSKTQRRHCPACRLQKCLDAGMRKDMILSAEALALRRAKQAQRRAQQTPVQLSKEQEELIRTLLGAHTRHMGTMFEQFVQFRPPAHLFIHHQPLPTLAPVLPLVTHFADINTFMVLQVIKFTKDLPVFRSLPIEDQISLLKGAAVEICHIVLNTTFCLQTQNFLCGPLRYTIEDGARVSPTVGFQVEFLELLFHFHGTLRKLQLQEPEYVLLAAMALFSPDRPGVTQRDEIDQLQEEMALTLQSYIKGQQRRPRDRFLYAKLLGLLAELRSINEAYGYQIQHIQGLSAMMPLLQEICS

SMILES	IC50 [nM]
CCOC(=O)Nc1ccc2c(c1)N(C(=O)CN)c1ccccc1CC2	> 70000
CCN(CC)CC(=O)N1c2ccccc2CCc2ccc(NC(=O)OC(C)(C)C)cc21	1030
CC(C)(C)OC(=O)Nc1ccc2c(c1)N(C(=O)Cn1cccc1)c1ccccc1CC2	31.9
CCN(CC)CC(=O)N1c2ccccc2CCc2ccc(NC(=O)OC(C)C)cc21	680
CC(C)(C)OC(=O)Nc1ccc2c(c1)N(C(=O)CN1CCCCC1)c1ccccc1CC2	216

The remaining molecules from weak to strong by IC50, led by results:

IC50 [nM]	SMILES
116	CCCN(CCC)CC(=O)N1c2ccccc2CCc2ccc(NC(=O)OC(C)C)cc21
116	CC(C)OCC(=O)N1c2ccccc2CCc2ccc(NC(=O)OC(C)(C)C)cc21
19.5	CC(C)OC(=O)Nc1ccc2c(c1)N(C(=O)COC1CCCC1)c1ccccc1CC2
11.7	O=C(Nc1ccc2c(c1)N(C(=O)Cn1cccc1)c1ccccc1CC2)OC1CCCCC1
